Reference: US20140303092A1 (CHIMERIX, INC., priority 2011, published 2014)

Assay: Study HDP-CDV-201: safety and tolerability (adverse events, laboratory abnormalities, discontinuations)
Assay type: in vivo, human (adult allogeneic HSCT recipients)
Experimental: Clinical Studies of HDP-CDV were performed and described in detail in the following Examples. For example, HDP-CDV-201 is a placebo-controlled, dose-escalating trial in HSCT CMV (R+) recipients, evaluating the ability of HDP-CDV to prevent or control CMV infection was carried out. Five cohorts were established in which participants or subjects received either placebo or the HDP-CDV orally, in doses ranging from 40 mg weekly (QW) to 200 mg twice weekly (BIW). Subjects who were post-HSCT were enrolled at the time of engraftment and randomized to HDP-CDV or placebo (3 to 1 ratio) and received blinded therapy until approximately 100 day post-transplantation. HDP-CDV doses were 40 mg QW, 100 mg QW, 200 mg QW, 200 mg BIW and 100 mg BIW. Escalation to the next dose was decided by the data monitoring committee after review of the safety data from the previous Cohort. Subjects who developed CMV disease or CMV infection requiring pre-emptive therapy with local standard of care were discontinued from blinded therapy and followed for 4 weeks. Subjects who completed treatment with blinded therapy were followed for 8 weeks post-therapy.
Data from Study HDP-CDV-201 also provided characterization of the safety and tolerability profile of HDP-CDV when administered for the prevention or control of CMV infection in high risk (R^+) post-HSCT adult subjects.
The Safety population (SAFETY) included all randomized subjects who took at least one dose of study treatment. This population was used to summarize safety outcomes based on the treatment actually received, in cases where a subject was treated contrary to the randomization schedule.
The safety and tolerability profile of HDP-CDV, including subject demographics and Baseline characteristics; the AE profile; and laboratory abnormalities of interest were analyzed in the cohorts followed in this investigation.
Subjects completing the treatment period received a full course of study medication; those completing the entire study attended visits through 8 weeks of follow up. Subjects who discontinued treatment may have done so for protocol specified reasons (e.g. development of clinically significant CMV infection requiring preemptive treatment with excluded anti-CMV medications) or for other reasons (e.g., withdrawal, adverse events, loss to follow-up). The disposition of subjects in Study HDP-CDV-201 during the double-blind, placebo-controlled treatment period (through Week 11) is listed by dosing Cohort in TABLE 23.
Adverse events were examined by severity to ensure that all safety signals were identified in this study population. Because of the frequency of events in HSCT recipients, particular attention was given to evaluation of Grade 3 […], 4 (severe), and 5 (fatal) adverse events.
Only those preferred terms for which at least one Grade 3 or higher event was experienced in any treatment group are listed. Cytomegalovirus-related AEs are excluded from this analysis.
HDP-CDV is a lipid conjugate of CDV. Because CDV is known to have adverse effects on renal function and bone marrow, decreased GFR and persistent neutropenia were identified as AEs of special interest. Key renal and hematological (TABLE 30) laboratory parameters were measured and listed below by Study HDP-CDV-201 treatment groups. TABLE 30 includes abnormal levels of serum creatinine, neutrophils, platelets, WBCs, and hemoglobin and includes data at Screening and during the treatment period.
A common metric for unit based dosing of medications is by weight (mg/kg). When the distribution of weights was examined for all subjects participating in the study, the median was 78 kg and the lower 25th percentile weight was approximately 65 kg, which translates to a cut-off of ˜3 mg/kg for a 200 mg total weekly dose. Based upon this approach, a cut-off of 3 mg/kg was used to assess the frequency of diarrhea and associated GI AEs reported for the subjects in Cohorts 3 or 4a (TABLE 40).

[1] = Cohort 2, 100 mg QW, through Week 11

Structure (SMILES): CCCCCCCCCCCCCCCCOCCCOP(=O)(O)COC(CO)Cn1ccc(N)nc1=O (stereo not drawn) [HDP-CDV]
- Alkaline Phosphatase (Screening) >2.5-5.0 × ULN, subjects (Cohort 2, 100 mg QW): 0
- Alkaline Phosphatase (Screening) >5.0-20.0 × ULN, subjects (Cohort 2, 100 mg QW): 0
- Alkaline Phosphatase (Screening) >20.0 × ULN, subjects (Cohort 2, 100 mg QW): 0
- Alkaline Phosphatase (Screening) >ULN-[…] ULN, subjects (Cohort 2, 100 mg QW): 6 (22.2%)
- Alkaline Phosphatase (any time during therapy) >2.5-5.0 × ULN, subjects (Cohort 2, 100 mg QW): 1 (3.7%)
- Alkaline Phosphatase (any time during therapy) >5.0-20.0 × ULN, subjects (Cohort 2, 100 mg QW): 1 (3.7%)
- Alkaline Phosphatase (any time during therapy) >20.0 × ULN, subjects (Cohort 2, 100 mg QW): 0
- Alkaline Phosphatase (any time during therapy) >ULN-[…] ULN, subjects (Cohort 2, 100 mg QW): 7 (25.9%)
- GI AE Leading to Study Drug Discontinuation: Abdominal pain, subjects (Cohort 2, 100 mg QW): 0
- GI AE Leading to Study Drug Discontinuation: Diarrhoea, subjects (Cohort 2, 100 mg QW): 0
- GI AE Leading to Study Drug Discontinuation: Dyspepsia, subjects (Cohort 2, 100 mg QW): 0
- GI AE Leading to Study Drug Discontinuation: Nausea, subjects (Cohort 2, 100 mg QW): 0
- GI AE Leading to Study Drug Discontinuation: Vomiting, subjects (Cohort 2, 100 mg QW): 1 (3.7%)
- GI AEs Leading to Study Drug Discontinuation: Total subjects discontinued (Cohort 2, 100 mg QW): 1 (3.7%)
- Gastrointestinal AE Abdominal discomfort, subjects (Cohort 2, 100 mg QW): 1 (3.7%)
- Gastrointestinal AE Abdominal distention, subjects (Cohort 2, 100 mg QW): 2 (7.4%)
- Gastrointestinal AE Abdominal pain upper, subjects (Cohort 2, 100 mg QW): 2 (7.4%)
- Gastrointestinal AE Abdominal pain, subjects (Cohort 2, 100 mg QW): 2 (7.4%)
- Gastrointestinal AE Constipation, subjects (Cohort 2, 100 mg QW): 0
- Gastrointestinal AE Diarrhoea, subjects (Cohort 2, 100 mg QW): 8 (29.6%)
- Gastrointestinal AE Diverticulum intestinal haemorragic, subjects (Cohort 2, 100 mg QW): 0
- Gastrointestinal AE Dyspepsia, subjects (Cohort 2, 100 mg QW): 2 (7.4%)
- Gastrointestinal AE Dysphagia, subjects (Cohort 2, 100 mg QW): 1 (3.7%)
- Gastrointestinal AE Epigastric discomfort, subjects (Cohort 2, 100 mg QW): 1 (3.7%)
- Gastrointestinal AE Flatulence, subjects (Cohort 2, 100 mg QW): 1 (3.7%)
- Gastrointestinal AE GERD, subjects (Cohort 2, 100 mg QW): 4 (14.8%)
- Gastrointestinal AE Gastritis, subjects (Cohort 2, 100 mg QW): 1 (3.7%)
- Gastrointestinal AE Haematochezia, subjects (Cohort 2, 100 mg QW): 0
- Gastrointestinal AE Haemorroids, subjects (Cohort 2, 100 mg QW): 0
- Gastrointestinal AE Large intestinal ulcer, subjects (Cohort 2, 100 mg QW): 0
- Gastrointestinal AE Nausea, subjects (Cohort 2, 100 mg QW): 5 (18.5%)
- Gastrointestinal AE Odynophagia, subjects (Cohort 2, 100 mg QW): 0
- Gastrointestinal AE Oesophagitis, subjects (Cohort 2, 100 mg QW): 0
- Gastrointestinal AE Retching, subjects (Cohort 2, 100 mg QW): 1 (3.7%)
- Gastrointestinal AE Vomiting, subjects (Cohort 2, 100 mg QW): 6 (22.2%)
- Hepatobiliary clinical AE Cholelithiasis, subjects (Cohort 2, 100 mg QW): 0
- Hepatobiliary clinical AE Hepatomegaly, subjects (Cohort 2, 100 mg QW): 0
- Hepatobiliary clinical AE Hyperbilirubinaemia, subjects (Cohort 2, 100 mg QW): 0
- Hepatobiliary clinical AE Jaundice, subjects (Cohort 2, 100 mg QW): 0
- Hepatobiliary clinical AE Liver injury, subjects (Cohort 2, 100 mg QW): 0
- Intensity of Gastrointestinal AEs, Grade 1, subjects (Cohort 2, 100 mg QW): 6 (22.2%)
- Intensity of Gastrointestinal AEs, Grade 2, subjects (Cohort 2, 100 mg QW): 10 (37.0%)
- Intensity of Gastrointestinal AEs, Grade 3, subjects (Cohort 2, 100 mg QW): 1 (3.7%)
- Intensity of Gastrointestinal AEs, Grade 4, subjects (Cohort 2, 100 mg QW): 0
- Intensity of Gastrointestinal AEs, Grade 5, subjects (Cohort 2, 100 mg QW): 0
- Proportion of Subjects with Stage 3 or 4 Gut GVHD (Cohort 2, 100 mg QW): 0%
- Serum ALT level, Median fold increase from Baseline at Follow-up Week 1 (Cohort 2, 100 mg QW): 1.50 fold
- Serum ALT level, Median fold increase from Baseline at Follow-up Week 4 (Cohort 2, 100 mg QW): 0.96 fold
- Serum ALT level, Peak Median fold increase from Baseline (Cohort 2, 100 mg QW): 1.53 fold
- Subjects completed study (Cohort 2, 100 mg QW): 14 (51.9%) n (%)
- Total Bilirubin (Screening) >1-[…] ULN, subjects (Cohort 2, 100 mg QW): 1 (3.8%)
- Total Bilirubin (Screening) >1.5-3 × ULN, subjects (Cohort 2, 100 mg QW): 1 (3.8%)
- Total Bilirubin (Screening) >3-10 × ULN, subjects (Cohort 2, 100 mg QW): 0
- Total Bilirubin (Screening) >10 × ULN, subjects (Cohort 2, 100 mg QW): 0
- Total Bilirubin (any time during therapy) >1-[…] ULN, subjects (Cohort 2, 100 mg QW): 0
- Total Bilirubin (any time during therapy) >1.5-3 × ULN, subjects (Cohort 2, 100 mg QW): 1 (3.7%)
- Total Bilirubin (any time during therapy) >3-10 × ULN, subjects (Cohort 2, 100 mg QW): 0
- Total Bilirubin (any time during therapy) >10 × ULN, subjects (Cohort 2, 100 mg QW): 0
- Abdominal pain leading to study drug withdrawal (Cohort 2, 100 mg QW, N = 27): 0%
- All AEs leading to withdrawal (Cohort 2, 100 mg QW, N = 27): 9 (33.3%)
- Diarrhoea leading to study drug withdrawal (Cohort 2, 100 mg QW, N = 27): 0%
- Dyspepsia leading to study drug withdrawal (Cohort 2, 100 mg QW, N = 27): 0%
- Nausea leading to study drug withdrawal (Cohort 2, 100 mg QW, N = 27): 0%
- TEAE ALT increased (Cohort 2, 100 mg QW, N = 27): 1 (3.7%) n (%)
- TEAE AST increased (Cohort 2, 100 mg QW, N = 27): 1 (3.7%) n (%)
- TEAE Abdominal pain (Cohort 2, 100 mg QW, N = 27): 2 (7.4%) n (%)
- TEAE Abdominal pain, Upper (Cohort 2, 100 mg QW, N = 27): 2 (7.4%) n (%)
- TEAE Acute GVHD (Cohort 2, 100 mg QW, N = 27): 7 (25.5%) n (%)
- TEAE Acute Myeloid Leukemia recurrent (Cohort 2, 100 mg QW, N = 27): 0 n (%)
- TEAE Acute Renal Failure (Cohort 2, 100 mg QW, N = 27): 0 n (%)
- TEAE Anxiety (Cohort 2, 100 mg QW, N = 27): 3 (11.1%) n (%)
- TEAE Arthralgias (Cohort 2, 100 mg QW, N = 27): 3 (11.1%) n (%)
- TEAE Back Pain (Cohort 2, 100 mg QW, N = 27): 2 (7.4%) n (%)
- TEAE Blood lactate dehydrogenase increased (Cohort 2, 100 mg QW, N = 27): 1 (3.7%) n (%)
- TEAE Creatinine increased (Cohort 2, 100 mg QW, N = 27): 5 (18.5%) n (%)
- TEAE Cytomegalovirus viremia (Cohort 2, 100 mg QW, N = 27): 4 (14.8%) n (%)
- TEAE Decreased appetite (Cohort 2, 100 mg QW, N = 27): 5 (18.5%) n (%)
- TEAE Diarrhoea (Cohort 2, 100 mg QW, N = 27): 8 (29.6%) n (%)
- TEAE Dysgeusia (Cohort 2, 100 mg QW, N = 27): 1 (3.7%) n (%)
- TEAE Fatigue (Cohort 2, 100 mg QW, N = 27): 3 (11.1%) n (%)
- TEAE GI Reflux Disease (Cohort 2, 100 mg QW, N = 27): 4 (14.8%) n (%)
- TEAE Gamma-glutamyltransferase increased (Cohort 2, 100 mg QW, N = 27): 1 (3.7%) n (%)
- TEAE Generalized oedema (Cohort 2, 100 mg QW, N = 27): 0 n (%)
- TEAE Hyperbilirubinaemia (Cohort 2, 100 mg QW, N = 27): 0 n (%)
- TEAE Hyperglycaemia (Cohort 2, 100 mg QW, N = 27): 1 (3.7%) n (%)
- TEAE Hyperkalemia (Cohort 2, 100 mg QW, N = 27): 1 (3.7%) n (%)
- TEAE Hypocalcaemia (Cohort 2, 100 mg QW, N = 27): 0 n (%)
- TEAE Hypokalaemia (Cohort 2, 100 mg QW, N = 27): 2 (7.4%) n (%)
- TEAE Hyponatraemia (Cohort 2, 100 mg QW, N = 27): 1 (3.7%) n (%)
- TEAE Increased leukocytosis (Cohort 2, 100 mg QW, N = 27): 0 n (%)
- TEAE Insomnia (Cohort 2, 100 mg QW, N = 27): 2 (7.4%) n (%)
- TEAE Liver function test abnormal (Cohort 2, 100 mg QW, N = 27): 1 (3.7%) n (%)
- TEAE Malnutrition (Cohort 2, 100 mg QW, N = 27): 0 n (%)
- TEAE Nausea (Cohort 2, 100 mg QW, N = 27): 5 (18.5%) n (%)
- TEAE Neutropenia (Cohort 2, 100 mg QW, N = 27): 4 (14.8%) n (%)
- TEAE Oedema peripheral (Cohort 2, 100 mg QW, N = 27): 5 (18.5%) n (%)
- TEAE Oral Candidiasis (Cohort 2, 100 mg QW, N = 27): 0 n (%)
- TEAE Pneumonia (Cohort 2, 100 mg QW, N = 27): 2 (7.4%) n (%)
- TEAE Pyrexia (Cohort 2, 100 mg QW, N = 27): 1 (3.7%) n (%)
- TEAE Recurrent flatulence (Cohort 2, 100 mg QW, N = 27): 1 (3.7%) n (%)
- TEAE Renal Failure (Cohort 2, 100 mg QW, N = 27): 2 (7.4%) n (%)
- TEAE Staphylococcal Bacteremia (Cohort 2, 100 mg QW, N = 27): 1 (3.7%) n (%)
- TEAE Thrombocytopenia (Cohort 2, 100 mg QW, N = 27): 3 (11.1%) n (%)
- TEAE Tremor (Cohort 2, 100 mg QW, N = 27): 3 (11.1%) n (%)
- TEAE Vomiting (Cohort 2, 100 mg QW, N = 27): 6 (22.2%) n (%)
- Vomiting leading to study drug withdrawal (Cohort 2, 100 mg QW, N = 27): 1 (3.7%)
- All AEs, Grade 5 (deaths) (Cohort 2, 100 mg QW, N = 27, entire study duration): 0%
- Proportion of Subjects with Grade 3 Diarrhea (Cohort 2, 100 mg QW, no Grade 4 or 5 diarrhea in any Cohort): 0%
- Subjects completed treatment [1]: 18 (66.7%) n (%)
- Subjects who permanently discontinued treatment [1]: 9 (33.3%) n (%)
- Grade of hepatobiliary AE acute liver injury, subject 3007 (Cohort 3): 3
